According to paper PMC11986975, “A Cdk5 inhibitor restores cognitive function and alleviates type 2 diabetes in mice” (iScience, 2025):

Legend:
[1] = target: Cdk5/p35 (Homo sapiens, UniProt Q00535); assay: Cdk5 kinase assay (ADP-Glo) with Cdk5/p35 complex; assay type: biochemical; conditions: 10 μM ATP, histone substrate, inhibitor 0-100 nM
Protocol: (§1) The test tube Cdk5 Kinase assay was performed utilizing Cdk5/p35 and Cdk5/p25 complexes as kinases, following the modified procedure outlined in a previous study,[52] using a Promega ADP-GloTM Kinase Assay kit. The reaction was carried out with 10 μM ATP and 2 μg of histone as the substrate for Cdk5 complexes. To study the inhibition patterns, 19 Cdk5 inhibitors (BLINK1-19) identified through molecular docking were added to the Cdk5 kinase reaction in increasing concentrations ranging from 0 to 100 nM. The IC50 (half-maximal inhibitory concentration) values of all the inhibitors were calculated based on Log(inhibitor) vs. normalized response using GraphPad software.

[2] = target: Cdk5/p25 (Homo sapiens, UniProt Q00535); assay: Cdk5 kinase assay (ADP-Glo) with Cdk5/p25 complex; assay type: biochemical; conditions: 10 μM ATP, histone substrate, inhibitor 0-100 nM
Chain of Cdk5/p25 (Q00535 whole entry, species assumed): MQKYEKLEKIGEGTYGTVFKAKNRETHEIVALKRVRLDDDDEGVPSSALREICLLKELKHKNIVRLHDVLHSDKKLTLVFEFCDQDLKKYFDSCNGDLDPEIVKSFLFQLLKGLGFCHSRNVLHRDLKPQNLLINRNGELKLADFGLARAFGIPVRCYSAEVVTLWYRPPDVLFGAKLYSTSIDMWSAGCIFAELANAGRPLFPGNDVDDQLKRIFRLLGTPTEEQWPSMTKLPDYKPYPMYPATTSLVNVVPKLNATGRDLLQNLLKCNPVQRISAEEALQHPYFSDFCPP
Chain of Cdk5/p25 (Q15078 99-307 partner limits assumed, species assumed): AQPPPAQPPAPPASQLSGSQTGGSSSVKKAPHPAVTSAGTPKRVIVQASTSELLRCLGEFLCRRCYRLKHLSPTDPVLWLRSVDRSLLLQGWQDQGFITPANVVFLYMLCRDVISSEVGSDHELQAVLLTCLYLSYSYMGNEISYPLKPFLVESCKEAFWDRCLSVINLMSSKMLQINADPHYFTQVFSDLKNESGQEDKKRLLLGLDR
Protocol: as §1

Chain of Cdk5/p35 (Q00535 whole entry, species assumed): as the sequence (Q00535 whole entry, species assumed) above
Chain of Cdk5/p35 (Q15078 whole entry partner, species assumed): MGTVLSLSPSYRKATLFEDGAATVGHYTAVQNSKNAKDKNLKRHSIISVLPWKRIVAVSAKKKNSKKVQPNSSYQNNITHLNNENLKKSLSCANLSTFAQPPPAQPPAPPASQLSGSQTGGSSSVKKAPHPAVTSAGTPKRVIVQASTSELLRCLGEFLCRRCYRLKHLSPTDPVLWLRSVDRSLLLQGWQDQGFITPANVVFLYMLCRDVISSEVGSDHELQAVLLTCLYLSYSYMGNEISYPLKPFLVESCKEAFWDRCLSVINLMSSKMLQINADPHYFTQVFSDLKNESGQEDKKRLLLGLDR

Compound | IC50 [1] | IC50 [2]
CC1(C)Cc2c(sc3nc(SCC(=O)O)[nH]c(=O)c23)CO1 [BLINK1] | 19.2 nM | 18.4 nM
COc1ccc(C(=O)CSc2nc3sc(C)c(C)c3c(=O)[nH]2)cc1C [BLINK2] | 92.6 nM | 33.5 nM
Cc1ccc(-c2csc(Cc3nc(-c4cc5ccccc5oc4=O)cs3)n2)cc1 [BLINK3] | 68.7 nM | 71.3 nM
O=C(Nc1ccc(Cl)cc1C(=O)NCCO)c1ccc(Cl)cc1Cl [BLINK4] | 27.7 nM | 16.9 nM
CN(C)C(=O)CSc1nc2sc3c(c2c(=O)[nH]1)CCCC3 [BLINK5] | 16.9 nM | 17.5 nM
OCCCNc1nc(-c2ccccc2Cl)c2cc(Br)ccc2n1 [BLINK6] | 183 nM | 141 nM
Cc1nnc(SCC(=O)Nc2nsc(-c3ccc(Cl)cc3)n2)s1 [BLINK7] | 85.2 nM | 97 nM
Cc1ccc2nc(Nc3nc(O)cc(CSc4nnc(C)s4)n3)nc(C)c2c1 [BLINK8] | 50.6 nM | 108 nM
CCOC(=O)c1cnc(Nc2nc3ccccc3o2)nc1CSc1nnc(C)s1 [BLINK9] | 54.1 nM | 35.1 nM

Next, values leading:

IC50 [1] | IC50 [2] | Compound
20.1 nM | 41.5 nM | O=C(CSc1nnc(-c2ccccc2Cl)[nH]1)c1ccc(O)c(O)c1 [BLINK13]
24.8 nM | 23.1 nM | Cc1cc(C)c2nc(-c3cccnc3)cc(C(=O)Nc3sc(Cc4ccccc4)cc3C(N)=O)c2c1 [BLINK14]
28 nM | 21.2 nM | Clc1ccc2nc(SCc3csc(Nc4ccccc4)n3)oc2c1 [BLINK16]
63.2 nM | 43.2 nM | O=C(CSc1n[nH]c(-c2ccc(Cl)cc2)n1)N[C@H]1C[C@@H]2CC[C@H]1C2 [BLINK17]
57.2 nM | 32.1 nM | O=C1c2cccc3cccc(c23)C(=O)N1CCCSc1n[nH]c(-c2ccc(F)cc2)n1 [BLINK18]
55.3 nM | 48.1 nM | CC1CCc2c(sc3nc(CCl)ncc23)C1 (stereo not drawn) [BLINK19]
